# Source: patent US20240166587A1, “SARS-CoV-2 inhibitors - artificial compounds” (priority 2021, published 2024)
# “And” between values parts separate entries of the source, which are not always exact repeats. Equal values may be shown once. Read-outs that look alike come from different tables or passages of the source.
# What was measured:
# [1] = tested on: SARS-CoV-2; type: cell-based; settings: Vero cells; for Experiment 2: repeat of TCID50 assay with a dose of 50 uM / Experiment 2: Fold reduction of TCID50 / Experiment 3: repeat of TCID50 assay with a dose of 50 uM / Experiment 3: Fold reduction of TCID50: substance 50 μM; for Experiment 2: Fold reduction of TCID50: experiment 2, versus DMSO ctrl; for Experiment 3: Fold reduction of TCID50: experiment 3, versus DMSO ctrl
# [2] = tested on: SARS-CoV-2; type: cell-based; settings: Vero E6, 48 hrs
# [3] = tested on: SARS-CoV-2; type: cell-based; settings: Vero cells, different concentrations, 48 hours
# [4] = tested on: SARS-CoV-2; type: cell-based; settings: for effect on virus proliferation after short term incubation: versus untreated controls
# [5] = molecular target: T1, RBD to ACE2 receptor binding (Severe acute respiratory syndrome coronavirus 2, UniProt P0DTC2); assay: Molecular interaction assay to detect inhibition of RBD to ACE2 receptor binding; settings: for inhibitory effect on binding to ACE2 receptor: His-tagged RBD, plate bound ACE2
# T1 construct: 200 ng His-tagged RBD was incubated
# Experimental: The molecular interaction assay to detect inhibition of RBD to ACE2 receptor binding was performed as described (Gattinger et al., Allergy, 76 (2021), 878-883) with following alterations: 200 ng His-tagged RBD was incubated with various doses (100, 50, 25, 12.2, and 6 mM) of substance X for three hours at RT followed by a 3-hours overlay onto plate bound ACE2 (2 μg/ml). Bound RBD was then detected with a mouse monoclonal anti-His antibody followed by an HRP-labelled anti-mouse IgG1 antibody and detected with ABTS detected. All measurements were performed in duplicates with a variation of <5%.
Molecule,"Experiment 1: TCID50 assay with 2 doses/substance, 10 μM [1]",Experiment 2: repeat of TCID50 assay with a dose of 50 uM [1],Experiment 2: Fold reduction of TCID50 [1] [fold],Experiment 3: repeat of TCID50 assay with a dose of 50 uM [1],Experiment 3: Fold reduction of TCID50 [1],"Experiment 1: TCID50 assay with 2 doses/substance, 100 μM [1]",inhibition of viral replication ([2]; 80 μM),inhibition of viral replication ([2]; 100 μM),inhibition of virus proliferation [3],ct values after short term incubation ([4]; 25 μM for one hour),ct values after short term incubation ([4]; 50 μM for one hour),effect on virus proliferation after short term incubation [4],inhibition at 100 µM ([5]; 100 μM) [%],inhibitory effect on binding to ACE2 receptor [5]
"Oc1cc(O)c2c(c1)O[C@H](c1cc(O)c(O)c(O)c1)[C@H](O)C2 [VII, (−)-epigallocatechin]",2.15 × 10^4 TCID50/mL,2.89 × 10^5 TCID50/mL,1.09,3.80 × 10^5 TCID50/mL,7.09 fold,3.16 × 10^3 TCID50/mL,,,,,,,,
"Oc1cc(/C=C/c2cc(O)c(O)c(O)c2)cc(O)c1O [Compound X, 3,3′,4,4′,5,5′-hexahydroxy-trans-stilbene]",5.88 × 10^4 TCID50/mL,3.16 × 10^3 TCID50/mL,99.7,1.95 × 10^3 TCID50/mL,2107 fold and 2107.2 fold,4.64 × 10^2 TCID50/mL,inhibit viral replication completely,inhibit viral replication completely,inhibition of virus proliferation,significantly increased,significantly increased,could inhibit virus proliferation in a concentration dependent manner,21 to 31,could inhibit binding to ACE2 in a concentration dependent manner
"Oc1ccc(/C=C/c2cc(O)cc(O)c2)cc1 [trihydroxystilbene, trans-3,5,4′-trihydroxystilbene]",,,,,,,,low inhibition of viral replication,,,,,,
(−)-gallocatechin gallate [VIII],2.15 × 10^5 TCID50/mL,3.16 × 10^3 TCID50/mL,99.7,8 × 10^5 TCID50/mL,5.14 fold,4.64 × 10^2 TCID50/mL,,,inhibition of virus proliferation,,,did not have any effects on the virus proliferation,,did not show any inhibitory effects
(−) epigallocatechin gallate [Compound IV],3.36 × 10^4 TCID50/mL,3.16 × 10^3 TCID50/mL,99.7,5.12 × 10^3 TCID50/mL,802 fold and 802.3 fold,cytotoxic,,,inhibition of virus proliferation,,,did not have any effects on the virus proliferation,,did not show any inhibitory effects
"O=C(O)c1cc(O)c(O)c(O)c1 [Compound I, gallic acid]",3.16 × 10^5 TCID50/mL,3.16 × 10^4 TCID50/mL,9.97,4.44 × 10^5 TCID50/mL,9.27 fold,3.56 × 10^5 TCID50/mL,,,,,,,,
